Assay results: ChEMBL document CHEMBL1201862, “PubChem BioAssay data set” (2004)
The source made the active and inactive calls.

Columns and labels:
[1] = HEK-293T cell viability reduction – luminescence, B-cell screen hits, cytotoxicity control for BCR NF-kB inhibitor project, dose response (AID 489021); format: functional, cell-based;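 further: HEK-293T cells carrying an NF-kB luciferase reporter; cells exposed to compound for about 14 hours before viability readout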
[2] = molecular target: G-protein coupled receptor 55 (Homo sapiens, UniProt Q9Y2T6); experiment: blockers of GPR55 signalling, imaged – imaging, image-based, counter-screen for GPR35 antagonist project, SAR follow-up (AID 2397); format: functional
[3] = molecular target: T1, G-protein coupled receptor 35 (Homo sapiens, UniProt Q9HC97); experiment: inhibition of zaprinast-stimulated GPR35 beta-arrestin translocation – imaging, U2OS, beta-arrestin-GFP, zaprinast agonist, primary screen (AID 2058); format: functional;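 further: antagonist potency meaning inhibition of agonist-induced arrestin redistribution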
T1 sequence (Q9HC97 whole entry): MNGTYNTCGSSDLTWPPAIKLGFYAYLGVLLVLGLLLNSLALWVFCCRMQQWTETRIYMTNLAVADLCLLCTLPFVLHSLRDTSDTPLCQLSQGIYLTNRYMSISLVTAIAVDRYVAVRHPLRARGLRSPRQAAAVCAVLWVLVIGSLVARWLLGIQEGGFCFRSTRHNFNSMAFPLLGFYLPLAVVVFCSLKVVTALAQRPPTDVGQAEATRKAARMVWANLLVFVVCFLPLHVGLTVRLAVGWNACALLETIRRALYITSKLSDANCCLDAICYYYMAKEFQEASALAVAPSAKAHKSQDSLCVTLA

[4] = molecular target: T1, G-protein coupled receptor 35; experiment: SAR Analysis for the identification of Selective Antagonists of ERK1/2 Activity in GPR35-Overexpressing U2OS Cells. [Related pubchem assays: 2079, 2058 ]; format: functional, cell-based
[5] = restored growth of temperature-sensitive Burl-1 yeast – whole organism, S. cerevisiae, Burl-1 ts mutant, luminescence, counter-screen for SUMOylation pathway inhibitor project, dose response (AID 463199); format: functional
[6] = molecular target: CAAX prenyl protease 1 (Saccharomyces cerevisiae S288c, UniProt P47154); experiment: yeast CAAX protease Ste24 inhibition – biochemical, S. cerevisiae, plate reader, cherry-pick, dose response (AID 488815)
[7] = molecular target: T2, Cytochrome P450 2C9 (Homo sapiens, UniProt P11712)
T2 sequence (P11712 whole entry): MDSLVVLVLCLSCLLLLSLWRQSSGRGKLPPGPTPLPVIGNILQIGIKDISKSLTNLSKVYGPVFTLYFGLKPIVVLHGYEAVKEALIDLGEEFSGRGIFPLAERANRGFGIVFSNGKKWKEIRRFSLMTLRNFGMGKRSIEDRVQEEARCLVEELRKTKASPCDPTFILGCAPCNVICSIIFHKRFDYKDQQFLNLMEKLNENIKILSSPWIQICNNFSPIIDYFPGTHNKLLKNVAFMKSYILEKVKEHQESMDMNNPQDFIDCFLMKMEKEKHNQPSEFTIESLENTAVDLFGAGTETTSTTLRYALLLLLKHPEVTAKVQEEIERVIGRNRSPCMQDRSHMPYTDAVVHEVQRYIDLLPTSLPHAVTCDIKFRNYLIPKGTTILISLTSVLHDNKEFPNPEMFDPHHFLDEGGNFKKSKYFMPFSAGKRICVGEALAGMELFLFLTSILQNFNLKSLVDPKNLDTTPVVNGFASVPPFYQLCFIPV

[8] = molecular target: Trypsin (Sus scrofa, UniProt P00761); experiment: trypsin protease activity blockade – biochemical, quenched peptide fluorescence, cherry-pick, selectivity assay for Rce1 protease inhibitor project, dose response (AID 488789)
Sequence of Trypsin (P00761 whole entry): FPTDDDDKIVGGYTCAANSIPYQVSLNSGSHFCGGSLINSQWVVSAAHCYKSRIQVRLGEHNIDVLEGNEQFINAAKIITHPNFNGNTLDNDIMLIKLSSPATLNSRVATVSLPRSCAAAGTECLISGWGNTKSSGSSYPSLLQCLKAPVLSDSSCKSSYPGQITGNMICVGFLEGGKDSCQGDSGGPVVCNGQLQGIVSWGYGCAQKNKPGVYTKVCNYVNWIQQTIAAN

[9] = molecular target: T3, Alkaline phosphatase, tissue-nonspecific isozyme (Homo sapiens, UniProt P05186); experiment: TNAP enzyme inhibition by screening hits, dose response, selectivity assay for mouse IAP inhibitor project, biochemical, human TNAP, uHTS hits (AID 488906); format: functional
T3 sequence (P05186 whole entry): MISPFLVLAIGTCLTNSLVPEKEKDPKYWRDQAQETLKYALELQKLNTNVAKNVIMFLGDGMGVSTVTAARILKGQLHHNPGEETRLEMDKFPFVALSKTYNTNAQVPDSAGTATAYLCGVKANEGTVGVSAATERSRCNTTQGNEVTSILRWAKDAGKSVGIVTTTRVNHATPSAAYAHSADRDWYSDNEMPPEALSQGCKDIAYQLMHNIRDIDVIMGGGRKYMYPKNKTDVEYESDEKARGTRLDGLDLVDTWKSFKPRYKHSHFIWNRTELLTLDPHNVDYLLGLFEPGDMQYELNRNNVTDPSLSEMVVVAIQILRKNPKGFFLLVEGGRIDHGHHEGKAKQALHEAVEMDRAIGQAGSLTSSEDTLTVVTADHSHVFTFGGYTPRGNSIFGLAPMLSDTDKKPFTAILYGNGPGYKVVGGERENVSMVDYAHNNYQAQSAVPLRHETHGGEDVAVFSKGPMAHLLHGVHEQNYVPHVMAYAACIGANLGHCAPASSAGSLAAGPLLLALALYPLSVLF

[10] = molecular target: T4, Zinc finger protein mex-5 (Caenorhabditis elegans, UniProt Q9XUB2); experiment: potency of MEX-5 RNA-binding blockers – biochemical, C. elegans, fluorescence polarization, dose response (AID 1960)
T4 sequence (Q9XUB2 whole entry): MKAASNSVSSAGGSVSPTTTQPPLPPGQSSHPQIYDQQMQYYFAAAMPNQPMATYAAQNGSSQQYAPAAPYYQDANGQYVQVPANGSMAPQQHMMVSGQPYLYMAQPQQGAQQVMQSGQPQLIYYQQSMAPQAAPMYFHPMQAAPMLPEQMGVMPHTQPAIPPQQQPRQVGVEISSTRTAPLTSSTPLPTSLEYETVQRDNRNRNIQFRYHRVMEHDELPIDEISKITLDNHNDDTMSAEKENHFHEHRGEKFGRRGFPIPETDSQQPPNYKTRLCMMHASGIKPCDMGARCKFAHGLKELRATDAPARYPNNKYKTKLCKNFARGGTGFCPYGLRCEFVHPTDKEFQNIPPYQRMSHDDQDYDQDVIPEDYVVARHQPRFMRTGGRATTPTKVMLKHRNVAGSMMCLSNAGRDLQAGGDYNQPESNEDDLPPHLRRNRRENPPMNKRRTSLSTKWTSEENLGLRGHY

[11] = molecular target: Large T antigen (Simian virus 40, UniProt P03070); format: functional, Betapolyomavirus macacae;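 further: Confirmatory-stage PubChem screen for compounds that inhibit SV40 T antigen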
Sequence of Large T antigen (P03070 whole entry, the tested form may be a part): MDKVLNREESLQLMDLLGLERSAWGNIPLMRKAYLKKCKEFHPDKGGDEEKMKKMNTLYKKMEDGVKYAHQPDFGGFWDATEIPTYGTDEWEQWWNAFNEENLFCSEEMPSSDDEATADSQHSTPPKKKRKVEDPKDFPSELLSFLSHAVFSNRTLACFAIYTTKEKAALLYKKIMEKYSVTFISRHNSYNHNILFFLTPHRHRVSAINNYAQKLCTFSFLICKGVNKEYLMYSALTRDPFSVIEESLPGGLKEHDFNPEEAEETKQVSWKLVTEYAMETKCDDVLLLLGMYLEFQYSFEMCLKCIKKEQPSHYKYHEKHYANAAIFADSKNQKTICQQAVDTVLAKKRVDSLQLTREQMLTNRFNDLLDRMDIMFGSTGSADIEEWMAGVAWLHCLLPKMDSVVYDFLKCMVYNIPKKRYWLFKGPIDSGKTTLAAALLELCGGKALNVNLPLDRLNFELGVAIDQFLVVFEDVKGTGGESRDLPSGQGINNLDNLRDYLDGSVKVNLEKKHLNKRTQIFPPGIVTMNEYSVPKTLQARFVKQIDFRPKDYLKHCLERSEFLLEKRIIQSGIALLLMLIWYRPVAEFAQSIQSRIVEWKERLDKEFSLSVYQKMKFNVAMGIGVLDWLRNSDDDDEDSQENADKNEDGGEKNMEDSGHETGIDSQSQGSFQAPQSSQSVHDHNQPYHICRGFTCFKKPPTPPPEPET

[12] = molecular target: Hepatocyte nuclear factor 4-alpha (Homo sapiens, UniProt P41235); format: functional, cell-based;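 further: biochemical luminescence-based dose-response counterscreen measuring inhibition of HNF4 dimerization, run alongside a screen for blockers of ABHD5–perilipin-5 interaction; split luciferase complementation of HNF4 fusion proteins in cell lysate measuring dimerization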
Sequence of Hepatocyte nuclear factor 4-alpha (P41235 whole entry, the tested form may be a part): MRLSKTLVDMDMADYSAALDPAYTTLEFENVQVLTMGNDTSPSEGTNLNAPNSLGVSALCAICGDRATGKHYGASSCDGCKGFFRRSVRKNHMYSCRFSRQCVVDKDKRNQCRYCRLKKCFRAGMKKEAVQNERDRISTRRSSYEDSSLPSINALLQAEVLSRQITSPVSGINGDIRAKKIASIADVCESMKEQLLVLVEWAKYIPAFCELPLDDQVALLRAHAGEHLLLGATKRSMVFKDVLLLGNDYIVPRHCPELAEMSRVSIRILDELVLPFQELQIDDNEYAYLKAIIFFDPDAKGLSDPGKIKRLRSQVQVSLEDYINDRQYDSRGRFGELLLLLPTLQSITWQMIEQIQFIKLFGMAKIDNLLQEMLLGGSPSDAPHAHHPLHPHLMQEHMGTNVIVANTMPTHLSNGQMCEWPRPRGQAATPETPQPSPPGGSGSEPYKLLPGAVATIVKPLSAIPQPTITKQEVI

[13] = molecular target: T5, RNA-binding protein pos-1 (Caenorhabditis elegans, UniProt G5EF15); experiment: disruptors of C. elegans POS-1 RNA interaction – biochemical, fluorescence polarization, dose response (AID 1964);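 further: purified POS-1 fused to maltose binding protein made in E. coli; potency of compounds blocking POS-1 binding to fluorescent RNA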
T5 sequence (G5EF15 whole entry): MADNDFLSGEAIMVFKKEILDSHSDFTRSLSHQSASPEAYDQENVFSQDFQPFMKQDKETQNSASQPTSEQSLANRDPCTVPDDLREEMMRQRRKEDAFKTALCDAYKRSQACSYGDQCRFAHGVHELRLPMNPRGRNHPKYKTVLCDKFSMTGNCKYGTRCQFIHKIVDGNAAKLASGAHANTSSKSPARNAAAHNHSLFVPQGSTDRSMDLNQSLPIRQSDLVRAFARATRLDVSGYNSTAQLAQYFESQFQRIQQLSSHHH

[14] = molecular target: Intestinal-type alkaline phosphatase (Homo sapiens, UniProt P09923); experiment: inhibition of human intestinal alkaline phosphatase – biochemical, dose response (AID 488876); format: functional
Sequence of Intestinal-type alkaline phosphatase (Homo sapiens, UniProt P09923) (P09923 whole entry): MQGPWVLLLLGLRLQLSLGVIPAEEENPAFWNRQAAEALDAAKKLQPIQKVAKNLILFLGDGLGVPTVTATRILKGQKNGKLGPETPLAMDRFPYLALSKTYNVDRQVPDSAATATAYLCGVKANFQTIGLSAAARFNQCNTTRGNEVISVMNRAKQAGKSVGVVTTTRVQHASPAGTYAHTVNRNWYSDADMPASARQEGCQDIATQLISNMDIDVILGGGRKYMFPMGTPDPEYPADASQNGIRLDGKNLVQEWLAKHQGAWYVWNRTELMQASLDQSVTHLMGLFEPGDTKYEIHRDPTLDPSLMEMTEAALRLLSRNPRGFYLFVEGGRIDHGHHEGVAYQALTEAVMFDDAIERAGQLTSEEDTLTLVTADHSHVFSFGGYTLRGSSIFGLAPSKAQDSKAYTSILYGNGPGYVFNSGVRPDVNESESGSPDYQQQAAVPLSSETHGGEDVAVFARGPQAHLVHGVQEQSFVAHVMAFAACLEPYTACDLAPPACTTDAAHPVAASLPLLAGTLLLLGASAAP

[15] = molecular target: Intestinal-type alkaline phosphatase (Mus musculus, UniProt P24822); experiment: PubChem AID 488785; format: functional
[16] = molecular target: T6, Kappa-type opioid receptor (Homo sapiens, UniProt P41145); experiment: SAR analysis of Antagonists of the Kappa Opioid Receptor (KOR) using an Image-Based Assay - Set 2. [Related pubchem assays (depositor defined):AID1777, AID1785, AID1786, AID1966, AID2133, AID2136, AID2284, AID2285, AID2348]; format: functional
T6 sequence (P41145 whole entry): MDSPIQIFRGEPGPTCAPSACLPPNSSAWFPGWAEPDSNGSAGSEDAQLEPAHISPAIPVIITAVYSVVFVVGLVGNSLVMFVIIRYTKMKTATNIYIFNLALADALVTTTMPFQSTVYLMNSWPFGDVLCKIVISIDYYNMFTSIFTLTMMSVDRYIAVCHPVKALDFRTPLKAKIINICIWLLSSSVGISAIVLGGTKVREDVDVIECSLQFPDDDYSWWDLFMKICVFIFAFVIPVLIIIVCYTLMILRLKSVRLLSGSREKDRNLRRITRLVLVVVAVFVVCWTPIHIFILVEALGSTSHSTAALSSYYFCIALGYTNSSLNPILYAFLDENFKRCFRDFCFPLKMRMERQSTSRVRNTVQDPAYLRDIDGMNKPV

[17] = molecular target: T7, Delta-type opioid receptor (Homo sapiens, UniProt P41143); experiment: SAR Analysis of Agonists of the DOR Receptor using an Image-Based Assay - Set 2. [Related pubchem assays (depositor defined):AID1777, AID1785, AID1786, AID1966, AID2133, AID2136, AID2284, AID2285, AID2370]; format: functional
T7 sequence (P41143 whole entry): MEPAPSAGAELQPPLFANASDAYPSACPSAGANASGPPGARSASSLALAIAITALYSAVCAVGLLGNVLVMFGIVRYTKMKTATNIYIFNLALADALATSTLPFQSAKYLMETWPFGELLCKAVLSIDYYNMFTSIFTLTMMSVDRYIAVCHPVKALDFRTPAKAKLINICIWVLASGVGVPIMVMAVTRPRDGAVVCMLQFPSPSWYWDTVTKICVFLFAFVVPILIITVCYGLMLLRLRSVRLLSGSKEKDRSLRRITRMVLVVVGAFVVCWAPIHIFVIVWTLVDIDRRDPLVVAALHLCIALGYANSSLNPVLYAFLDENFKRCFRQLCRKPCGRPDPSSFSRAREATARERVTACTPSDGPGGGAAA

[18] = molecular target: T7, Delta-type opioid receptor; experiment: SAR Analysis of Antagonists of the DOR Receptor using an Image-Based Assay - Set 2. [Related pubchem assays (depositor defined):AID1777, AID1785, AID1786, AID1966, AID2133, AID2136, AID2284, AID2285, AID2357]; format: functional
[19] = molecular target: T6, Kappa-type opioid receptor; experiment: SAR analysis of Agonists of the Kappa Opioid Receptor (KOR) using an Image-Based Assay - Set 2. [Related pubchem assays (depositor defined):AID1777, AID1786, AID1966, AID2133, AID2136, AID2284, AID2285, AID2359]; format: functional
[20] = molecular target: T8, Mu-type opioid receptor (Homo sapiens, UniProt P35372); experiment: SAR Analysis of Antagonists of the MOR Receptor using an Image-Based Assay - Set 2. [Related pubchem assays (depositor defined):AID1777, AID1785, AID1786, AID1966, AID2133, AID2136, AID2284, AID2285, AID2420]; format: functional
T8 sequence (P35372 whole entry): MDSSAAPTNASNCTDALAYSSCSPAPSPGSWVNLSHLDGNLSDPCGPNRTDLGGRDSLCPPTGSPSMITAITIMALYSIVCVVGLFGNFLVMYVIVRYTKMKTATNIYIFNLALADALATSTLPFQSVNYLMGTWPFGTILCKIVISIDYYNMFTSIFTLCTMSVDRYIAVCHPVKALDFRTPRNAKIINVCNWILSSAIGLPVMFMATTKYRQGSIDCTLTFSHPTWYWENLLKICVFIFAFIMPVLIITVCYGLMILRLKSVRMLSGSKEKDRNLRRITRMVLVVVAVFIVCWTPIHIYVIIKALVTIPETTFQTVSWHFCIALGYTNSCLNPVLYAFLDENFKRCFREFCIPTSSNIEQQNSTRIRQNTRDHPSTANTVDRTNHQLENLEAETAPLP

[21] = molecular target: T6, Kappa-type opioid receptor; experiment: SAR analysis of small molecule agonists of the kappa opioid receptor via a luminescent beta-arrestin assay - Set 2. [Related pubchem assays (depositor defined):AID1777, AID1785, AID1786, AID1966, AID2133, AID2136, AID2284, AID449737]; format: functional
[22] = molecular target: T8, Mu-type opioid receptor; experiment: SAR Analysis of Agonists of the MOR Receptor using an Image-Based Assay - Set 2. [Related pubchem assays (depositor defined):AID1777, AID1785, AID1786, AID1966, AID2133, AID2136, AID2284, AID2285, AID2352]; format: functional
[23] = molecular target: Cytochrome P450 2D6 (Homo sapiens, UniProt P10635);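 further: CYP2D6 member of a cytochrome P450 panel assay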
Sequence of Cytochrome P450 2D6 (P10635 whole entry): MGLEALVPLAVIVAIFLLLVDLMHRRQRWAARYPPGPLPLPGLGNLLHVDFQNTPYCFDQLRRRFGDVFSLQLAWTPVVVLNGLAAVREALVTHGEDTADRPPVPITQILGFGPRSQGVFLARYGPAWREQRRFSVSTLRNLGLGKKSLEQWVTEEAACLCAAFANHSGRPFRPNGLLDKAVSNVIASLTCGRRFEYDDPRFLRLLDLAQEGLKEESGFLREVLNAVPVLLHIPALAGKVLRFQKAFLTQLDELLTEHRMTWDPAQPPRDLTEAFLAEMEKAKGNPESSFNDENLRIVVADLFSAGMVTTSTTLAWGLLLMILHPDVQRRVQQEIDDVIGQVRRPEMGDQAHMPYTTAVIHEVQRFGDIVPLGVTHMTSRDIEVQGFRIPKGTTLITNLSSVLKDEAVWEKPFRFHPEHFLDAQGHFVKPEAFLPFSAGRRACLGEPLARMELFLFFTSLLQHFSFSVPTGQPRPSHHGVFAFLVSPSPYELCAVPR

[24] = test system: Streptococcus sp. 'group A'; experiment: Streptococcus pyogenes SK(-)GAS viability under kanamycin – luminescence, BacTiterGlo, confirmation, counter-screen for streptokinase expression inhibitor project, dose response (AID 1900); format: functional, organism-based
[25] = molecular target: T9, Cytochrome P450 1A2 (Homo sapiens, UniProt P05177);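 further: PubChem cytochrome P450 panel assay, CYP1A2 panel member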
T9 sequence (P05177 whole entry): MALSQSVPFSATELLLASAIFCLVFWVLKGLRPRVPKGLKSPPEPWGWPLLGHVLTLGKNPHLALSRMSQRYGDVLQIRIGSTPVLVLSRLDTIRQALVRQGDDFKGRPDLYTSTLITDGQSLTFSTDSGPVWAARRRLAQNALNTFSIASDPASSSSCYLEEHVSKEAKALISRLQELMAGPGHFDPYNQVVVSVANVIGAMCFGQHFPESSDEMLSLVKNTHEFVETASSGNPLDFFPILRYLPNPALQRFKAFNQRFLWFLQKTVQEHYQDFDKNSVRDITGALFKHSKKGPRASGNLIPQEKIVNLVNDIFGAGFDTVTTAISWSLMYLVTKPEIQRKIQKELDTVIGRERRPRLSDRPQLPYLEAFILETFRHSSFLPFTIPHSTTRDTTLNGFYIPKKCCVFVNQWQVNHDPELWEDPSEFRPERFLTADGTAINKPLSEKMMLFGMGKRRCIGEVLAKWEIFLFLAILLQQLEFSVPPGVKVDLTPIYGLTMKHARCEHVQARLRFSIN

[26] = molecular target: T10, Streptokinase A (Streptococcus pyogenes serotype M1, UniProt P10520); experiment: viability-normalized secreted streptokinase activity reduction – plasminogen activation absorbance, OD405, dose response (AID 1914); format: functional, Streptococcus pyogenes M1 GAS;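 further: secreted streptokinase activity via plasminogen activation per viability signal from cell pellet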
T10 sequence (P10520 whole entry): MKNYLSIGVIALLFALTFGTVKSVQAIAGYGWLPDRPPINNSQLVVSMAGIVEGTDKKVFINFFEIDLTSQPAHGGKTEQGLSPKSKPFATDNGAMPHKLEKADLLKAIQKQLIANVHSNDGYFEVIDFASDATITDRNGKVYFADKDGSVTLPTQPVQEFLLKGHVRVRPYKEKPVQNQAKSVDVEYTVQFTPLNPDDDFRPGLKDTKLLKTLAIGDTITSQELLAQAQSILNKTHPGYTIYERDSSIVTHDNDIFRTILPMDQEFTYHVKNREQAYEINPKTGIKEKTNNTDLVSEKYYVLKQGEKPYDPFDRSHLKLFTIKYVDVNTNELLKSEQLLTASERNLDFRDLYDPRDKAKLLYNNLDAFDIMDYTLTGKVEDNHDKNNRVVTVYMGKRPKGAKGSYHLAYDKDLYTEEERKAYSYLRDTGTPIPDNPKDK

[27] = test system: Streptococcus; experiment: GAS UMAA2166 growth inhibition – luminescence, BacTiterGlo, counter-screen for streptokinase expression inhibitor project, dose response (AID 1915); format: functional, organism-based;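 further: potency for reduction of bacterial viability or growth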
[28] = molecular target: T2, Cytochrome P450 2C9; remark: listed apart in the source
[29] = molecular target: Cytochrome P450 2C19 (Homo sapiens, UniProt P33261); experiment: Cytochrome panel assay with activity outcomes. Panel member name: p450-cyp2c19 Compounds with AC50 equal or less than 10 uM are considered active; format: functional
Sequence of Cytochrome P450 2C19 (P33261 whole entry): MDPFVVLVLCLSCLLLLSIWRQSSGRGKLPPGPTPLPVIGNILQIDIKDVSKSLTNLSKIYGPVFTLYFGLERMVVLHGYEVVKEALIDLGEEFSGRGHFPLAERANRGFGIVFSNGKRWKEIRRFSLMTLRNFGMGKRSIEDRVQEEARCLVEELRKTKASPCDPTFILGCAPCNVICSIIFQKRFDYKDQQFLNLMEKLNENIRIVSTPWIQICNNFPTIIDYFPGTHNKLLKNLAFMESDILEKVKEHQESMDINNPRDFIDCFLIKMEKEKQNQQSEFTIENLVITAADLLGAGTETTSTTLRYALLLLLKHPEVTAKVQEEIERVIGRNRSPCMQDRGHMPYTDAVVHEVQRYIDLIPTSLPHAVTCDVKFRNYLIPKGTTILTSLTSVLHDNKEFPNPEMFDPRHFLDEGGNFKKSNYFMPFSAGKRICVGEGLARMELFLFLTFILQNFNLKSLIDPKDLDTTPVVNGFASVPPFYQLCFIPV

Structure (SMILES): Cc1ccc(/C=C2\SC(=S)N(CCCC(=O)Nc3ccc(O)cc3)C2=O)cc1
- IC50 [1]: > 80 µM (inactive)
- IC50 [2]: > 32 µM (inactive)
- IC50 [3]: 0.744 µM (active)
- IC50 [4]: 0.253 µM (active)

Structure (SMILES): O=C(c1cc(F)ccc1F)C1CCCN(C(=O)c2ccc3nccnc3c2)C1 (centres undefined)
- AC50 [5]: 78.3 µM (active)

Structure (SMILES): COc1ccc(-c2cc3ccccc3n2CC(O)CNCCO)cc1 (centres undefined)
- AC50 [6]: 11.5 µM (active)
- AC50 [7]: 17.8 µM (inconclusive)
- AC50 [8]: 17.3 µM (active)

Structure (SMILES): CN1C(=O)/C(=C/C=C/c2ccco2)C(=O)NC1=S
- IC50 [9]: 23.5 µM (active)
- EC50 [10]: 37.5 µM (active)
- IC50 [11]: 11.9 µM (active)
- IC50 [12]: 2.56 µM (active)
- EC50 [13]: 33.5 µM (active)
- IC50 [14]: 9.58 µM (active)
- IC50 [15]: 11.8 µM (active)

Structure (SMILES): COc1ccc(CSc2nnc(-c3ccccn3)n2Cc2ccco2)cc1
- IC50 [16]: > 32 µM (inactive)
- EC50 [17]: > 32 µM (inactive)
- IC50 [18]: > 32 µM (inactive)
- EC50 [19]: 12.4 µM (inactive)
- IC50 [20]: > 32 µM (inactive)
- EC50 [21]: 7.69 µM (active)
- EC50 [22]: > 32 µM (inactive)

Structure (SMILES): CC1(C)N=C(N)N=C(Nc2ccccc2)N1
- AC50 [23]: 39.8 µM (inconclusive)
- EC50 [24]: 1.52 µM (active)
- AC50 [25]: inactive
- EC50 [26]: > 150 µM (not active)
- EC50 [27]: > 150 µM (not active)
- AC50 [28]: inconclusive
- AC50 [29]: inactive
